# Results as given in patent publication US5776886A, “Intravaginal preparation containing physiologically active peptide” (Teikoku Seiyaku Kabushiki Kaisha, priority 1993, dated 1998).
# Test system: calcium level in the serum
# Assay: Experiment 2: effects of various bases on serum calcium reduction
# Type: in vivo, Wistar rats
# Details: for Reduction rate (%) of calcium level in the serum: S-970 + citric acid, intravaginal suppository 20 μg, rats
# Method: An intravaginal suppository was administered into the rat's vagina, and the blood was collected periodically (2, 4 and 6 hours after administration of the test preparation).
# The serum was separated, and the calcium level in the serum was determined by using a kit for determination of calcium (Calcium C Test Wako; manufactured by Wako Pure Chemical Industries, Ltd.) (n=3).
# In the same manner as in Experiment 1, each intravaginal suppository was administered to the rat's vagina, and the blood was collected periodically (2, 4 and 6 hours after administration of intravaginal suppository), and the calcium level in the serum thereof was determined (n=4).
substance,measurement,setting,value
Human calcitonin,Reduction rate (%) of calcium level in the serum,"base Cacao butter, 2 hr",12.5%
same,Reduction rate (%) of calcium level in the serum,"base Cacao butter, 4 hr",10.7%
same,Reduction rate (%) of calcium level in the serum,"base Cacao butter, 6 hr",8.3%
same,Reduction rate (%) of calcium level in the serum,"base Pharmasol B-105, 2 hr",13.4%
same,Reduction rate (%) of calcium level in the serum,"base Pharmasol B-105, 4 hr",14.8%
same,Reduction rate (%) of calcium level in the serum,"base Pharmasol B-105, 6 hr",10.6%
same,Reduction rate (%) of calcium level in the serum,"base Witepsol H-15, 2 hr",16.8%
same,Reduction rate (%) of calcium level in the serum,"base Witepsol H-15, 4 hr",17.7%
same,Reduction rate (%) of calcium level in the serum,"base Witepsol H-15, 6 hr",10.4%
same,Reduction rate (%) of calcium level in the serum,"base Witepsol S-55, 2 hr",16.5%
same,Reduction rate (%) of calcium level in the serum,"base Witepsol S-55, 4 hr",22.5%
same,Reduction rate (%) of calcium level in the serum,"base Witepsol S-55, 6 hr",13.0%
same,Reduction rate (%) of calcium level in the serum,"base Witepsol W-35, 2 hr",6.6%
same,Reduction rate (%) of calcium level in the serum,"base Witepsol W-35, 4 hr",20.4%
same,Reduction rate (%) of calcium level in the serum,"base Witepsol W-35, 6 hr",13.2%
same,promotion effect on absorption of calcitonin,"combination of sucrose fatty acid ester and citric acid, five bases",extremely excellent promotion effect on absorption of calcitonin regardless of any base to be used
